Results on four compounds are retold here after patent publication US12171230B2, “Herbicidal compositions” (Bayer Aktiengesellschaft, priority 2018, dated 2024).

Common to all, as to assay type: in vivo
Assay [1] deals with Setaria viridis. As to the kind of experiment: Post-emergence herbicidal action against Setaria viridis. Particulars: 21 DAT; 1.7 g a.i./ha. The procedure:
(§1) When the observed efficacies exceed the formal sum total of the values of the tests with individual applications, they also exceed the expected value according to Colby, which is calculated using the formula below and is likewise regarded as an indication of synergism (cf. S. R. Colby; in Weeds 15 (1967) p. 20 to 22): E^C=A+B−([…])
(§2) Here: • A=efficacy of the active compound (A) in % at an application rate of a g a.i./ha; • B=efficacy of the active compound (B) in % at an application rate of b g a.i./ha; • E^C=expected value of the effect of the combination (A)+(B) in % at the combined application rate a+b g a.i./ha.
(§3) Seeds or rhizome pieces of mono- and dicotyledonous weeds are placed in sandy loam in pots, covered with soil and grown in a greenhouse under good growth conditions (temperature, air humidity, water supply). Three weeks after sowing, the test plants were treated at the three-leaf stage with the compositions according to the invention. The compositions according to the invention formulated as spray powders or as emulsion concentrates were sprayed onto the green plant parts in various dosages with an application rate of 300 to 800 l/ha of water (equivalent). After the test plants have been left to stand in the greenhouse under optimal growth conditions for about 3 to 4 weeks, the action of the preparations is scored visually in comparison to untreated controls. The compositions according to the invention also have good post-emergence herbicidal activity against a broad spectrum of economically important gramineous and broadleaf weeds.

Assay [2] relates to Brachiaria platyphylla. As to the kind of experiment: Post-emergence herbicidal action against Brachiaria platyphylla. The procedure: as §1, §2, §3
The subject of assay [3] is Bidens pilosa. The assay can be described thus: Post-emergence herbicidal action against Bidens pilosa. In a few lines: (§4)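 Seeds or rhizome pieces were grown in sandy loam in pots in a greenhouse, and plants were sprayed at the three-leaf stage, three weeks after sowing. Spray powders or emulsion concentrates were applied in various dosages at 300 to 800 l/ha water. Efficacy was scored visually after 3 to 4 weeks against untreated controls.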

Assay [4] concerns Polygonum convolvulus. The assay can be described thus: Post-emergence herbicidal action against Polygonum convolvulus. Particulars: g of a.i./ha: 90, 30, 45, 45 + 90, 45 + 30. An excerpt: (§5) The following abbreviations are used in the description and the tables that follow: • g of a.i./ha=grams of active substance (active ingredient) (=100% active compound) per hectare; • The sum total of the effects of the individual applications is reported under E^A; • expected values according to Colby are each reported under E^C.
(§6) The rating period is reported in days after application (DAT).

Assay [5] concerns Amaranthus palmeri. The assay can be described thus: Post-emergence herbicidal action against Amaranthus palmeri. Particulars: for pest or weed control at 5 g/ha: 5 g of a.i./ha. In outline: as §4
The subject of assay [6] is Polygonum convolvulus. The assay can be described thus: Post-emergence herbicidal action against Polygonum convolvulus. Particulars: 21 DAT.
Assay [7] has as its system Eleusine indica. As to the kind of experiment: Post-emergence herbicidal action against Eleusine indica. Particulars: (Z3) post-emergence, g of a.i./ha: 270, 90, 15, 5, 5 + 270, 15 + 90.
From the text: as §5, §6

The test system of assay [8] is Kochia scoparia. As to the kind of experiment: Post-emergence herbicidal action against Kochia scoparia. Particulars: 21 DAT.
For assay [9], the system named is Echinochloa crus-galli. As to the kind of experiment: Post-emergence herbicidal action against Echinochloa crus-galli. Particulars: (Z3) post-emergence; g of a.i./ha: 270, 30, 5, 5 + 270, 5 + 30. The protocol: as §1, §2, §3
Assay [10] deals with Digitaria sanguinalis. As to the kind of experiment: Post-emergence herbicidal action against Digitaria sanguinalis. In outline:
as §4

Assay [11] concerns Eleusine indica. As to the kind of experiment: Post-emergence herbicidal action against Eleusine indica. Particulars: 21 DAT; 1.7 g a.i./ha.
Assay [12] concerns Sorghum halepense. As to the kind of experiment: Post-emergence herbicidal action against Sorghum halepense. Particulars: for Herbicidal action: 21 DAT. The protocol: as §1, §2, §3
Assay [13] concerns Ranunculus repens. As to the kind of experiment: Post-emergence herbicidal action against Ranunculus repens. Particulars: 105 g of a.i./ha. The procedure:
as §1, §2
as §3, with “After the test plants have been left to stand in the greenhouse under optimal growth conditions for about 3 to 4 weeks, the action of the preparations is scored visually in comparison to untreated controls.” left out

Assay [14] relates to Panicum maximum. As to the kind of experiment: Post-emergence herbicidal action against Panicum maximum. Particulars: 75 g of a.i./ha. The protocol:
as §1, §2, §3

In assay [15] the test system is Viola arvensis. The assay can be described thus: Post-emergence herbicidal action against Viola arvensis. Particulars: 105 g of a.i./ha. The procedure:
as §1, §2
as §3, with “After the test plants have been left to stand in the greenhouse under optimal growth conditions for about 3 to 4 weeks, the action of the preparations is scored visually in comparison to untreated controls.” left out

Assay [16] deals with Lamium purpureum. As to the kind of experiment: Post-emergence herbicidal action against Lamium purpureum. Particulars: 105 g of a.i./ha, post-emergence. In outline: as §4
Assay [17] concerns Ephilobium hirsutum. The assay can be described thus: Post-emergence herbicidal action against Ephilobium hirsutum. Particulars: 105 g of a.i./ha. The protocol: as §1, §2
as §3, with “The compositions according to the invention also have good post-emergence herbicidal activity against a broad spectrum of economically important gramineous and broadleaf weeds.” left out

In assay [18] the test system is Bellis perenne. As to the kind of experiment: Post-emergence herbicidal action against Bellis perenne. Particulars: 105 g of a.i./ha. The procedure: as §1, §2
as §3, with “The compositions according to the invention also have good post-emergence herbicidal activity against a broad spectrum of economically important gramineous and broadleaf weeds.” left out

In assay [19] the test system is Abutilon theophrasti. The assay can be described thus: Post-emergence herbicidal action against Abutilon theophrasti. Particulars: 75 g of a.i./ha.
For assay [20], the system named is Malva pusilia. The assay can be described thus: Post-emergence herbicidal action against Malva pusilia. Particulars: 42 DAT; 720 g a.i./ha.
The test system of assay [21] is Lysimachia nummularia. As to the kind of experiment: Post-emergence herbicidal action against Lysimachia nummularia. Particulars: 45 DAT; 720 g a.i./ha.
For assay [22], the system named is Ipomoea ssp. As to the kind of experiment: Post-emergence herbicidal action against Ipomoea ssp. Particulars: 45 DAT.

Like-named read-outs stand apart in the source and are kept apart here.

For the compound `COC(=O)[C@H]1C[C@@H](NC(=O)C2(OC)CC(c3cc(Cl)cc(Cl)c3)=NO2)CO1` (relative stereo) [Compound A1, methyl rel-(2R,4R)-4-[[3-(3,5-dichlorophenyl)-5-methoxy-4H-isoxazole-5-carbonyl]amino]tetrahydrofuran-2-carboxylate], the Herbicidal action in [1] is 15%; in [2] (21 DAT, 1.7 g a.i./ha), 50%; in [3] (21 DAT, 15 g a.i./ha) it was 35%; in [5] (21 DAT, (res.), 5 g a.i./ha), 10%; in assay [5] (21 DAT, (res.), 15 g a.i./ha), 10%; in assay [5] (21 DAT, (res.), 45 g a.i./ha), 40%. The Herbicidal action in assay [6] (5 g a.i./ha) was found to be 85%; in assay [6] (45 g a.i./ha) it was 85%; in assay [8] (5 g a.i./ha), 20%; in assay [8] (15 g a.i./ha), 45%; in assay [10] (21 DAT, 1.7 g a.i./ha), 20%; in assay [11], 20%. Besides, the values for the Herbicidal action in [12] (1.7 g a.i./ha) and in assay [12] (15 g a.i./ha) were 10% and 35%, respectively. The “Herbicidal action 21 DAT against Bidens pilosa” value in [3] (post-emergence, g of a.i./ha: 90, 30, 15, 15 + 90, 15 + 30) is listed as 35%. In assay [4], the “Herbicidal action 21 DAT against Polygonum convolvulus” value came to 85%. For the same compound, the “Herbicidal action 21 DAT against Eleusine indica” value in [7] (5 g of a.i./ha) worked out at 45%; in assay [7] (15 g of a.i./ha), 70%. For the same compound, the “Herbicidal action 21 DAT against Echinochloa crus-galli” value in [9] was found to be 10%.

Regarding `CS(=O)(=O)c1ccc(C(=O)C2C(=O)CCCC2=O)c([N+](=O)[O-])c1` [(B1.7) Mesotrione, mesotrione, reference compound], in assay [13], the “Herbicidal action 43 DAT [%] against Ranunculus repens” value was determined as 0%. Further, the “Herbicidal action 28 DAT [%] against Panicum maximum” value in assay [14] turned out to be 0%. Further, the “Herbicidal action 21 DAT [%] against Bidens pilosa” value in assay [3] (5 g of a.i./ha, post-emergence, block with (B1.7) Mesotrione) was found to be 0%; in assay [3] (45 g of a.i./ha, post-emergence, block with (B1.7) Mesotrione), 25%. Besides, in assay [5] (Amaranthus palmeri, post-emergence, 504 h, post-emergence, block with (B1.7) Mesotrione, read-out: Herbicidal action 21 DAT [%] against Amaranthus palmeri), the pest or weed control at 5 g/ha came out at 0%. Also, in assay [15], the “Herbicidal action 43 DAT [%] against Viola arvensis” value is given as 0%. In addition, the “Herbicidal action 32 DAT [%] against Lamium purpureum” value in [16] amounted to 0%. In [17], the “Herbicidal action 43 DAT [%] against Ephilobium hirsutum” value is 0%. Besides, the “Herbicidal action 43 DAT [%] against Bellis perenne” value in [18] was found to be 0%.

For the compound `CS(=O)(=O)c1cc(C(F)(F)F)ccc1C(=O)c1cnoc1C1CC1` [(B4.18) Isoxaflutole], the “Herbicidal action 21 DAT [%] against Brachiaria platyphylla” value turned out to be 20% in assay [2] (15 g of a.i./ha) and 30% in assay [2] (45 g of a.i./ha). Also, the “Herbicidal action 21 DAT [%] against Bidens pilosa” value was 20% in assay [3] (5 g of a.i./ha) and 60% in [3] (45 g of a.i./ha). For the same compound, the “Herbicidal action 37 DAT [%] against Abutilon theophrasti” value in assay [19] is 58%. The pest or weed control at 5 g/ha in assay [5] (Amaranthus palmeri, post-emergence, 504 h, read-out: Herbicidal action 21 DAT [%] against Amaranthus palmeri) turned out to be 10%. For the same compound, the pest or weed control at 15 g/ha in [5] (Amaranthus palmeri, post-emergence, 504 h, 15 g of a.i./ha, read-out: Herbicidal action 21 DAT [%] against Amaranthus palmeri) worked out at 10%. In [5] (Amaranthus palmeri, post-emergence, 504 h, 45 g of a.i./ha, read-out: Herbicidal action 21 DAT [%] against Amaranthus palmeri), the pest or weed control at 45 g/ha was 20%. Moreover, the “Herbicidal action 21 DAT [%] against Digitaria sanguinalis” value stood at 10% in assay [10] (15 g of a.i./ha) and 25% in [10] (45 g of a.i./ha). Besides, the “Herbicidal action 21 DAT [%] against Sorghum halepense” value in [12] (45 g of a.i./ha) came to 60%.

On to `O=C(O)CNCP(=O)(O)O` [(B7.5) Glyphosate (CAS 39600-42-5)], for which the Herbicidal action in [5] (16 DAT, 1440 g a.i./ha) came out at 2%; in [20], 0%; in assay [21] it was 7%; in assay [22] (720 g a.i./ha) it was 0%; in assay [22] (1440 g a.i./ha) it was 0%.
